# Measured values as given in patent publication US20110152221A1, “PAK1 Agonists and Methods of Use” (THE BOARD OF TRUSTEES OF THE UNIVERSITY OF ILLINOIS, priority 2008, published 2011).
# T1: decoy peptide (YNSKKTSNSQKYMSFTDKSA) (amino acids 131-150 of SEQ ID NO: 1)
# T1 chain: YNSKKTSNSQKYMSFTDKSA
# B1: Pak1 purified from bovine ventricle muscle (p21 activated kinase-1) (protein)
# chain: SNNGLDIQDKPPAPPMRNTSTMIGAGSKDAGTLNHGSKPLPPNPEEKKKKDRFYRAILPGDKTNKKKEKERPEISLPSDFEHTIHVGFDAVTGEFTGMPEQWARLLQTSNITKSEQKKNPQAVLDVLEFYNSKKTSNSQKYMSFTDKSAEDYNSSNTLNVKAVSETPAVPPVSEDEDDDDDGTPPPVIAPRPEHTKSVYTRSVIEPLPITPTRDVATSPISPTENNTTPPDALTRNTEKQKKKPKMSDEEILEKLRSIVSVGDPKKKYTRFEKIGQGASGTVYTAMDVATGQEVAIKQMNLQQQPKKELIINEILVMRENKNPNIVNYLDSYLVGDELWVVMEYLAGGSLTDVVTETCMDEGQIAAVCRECLQALEFLHSNQVIHRDIKSDNILLGMDGSVKLTDFGFCAQITPEQSKRSTMVGTPYWMAPEVVTRKAYGPKVDIWSLGIMAIEMIEGEPPYLNENPLRALYLIATNGTPELQNPEKLSAIFRDFLNRCLEMDVEKRGSAKELLQHQFLKIAKPLSSLTPLIAAAKEATKNNH
# What was measured:
# [1] = target: T2, Pak1 purified from cardiac muscle (Bos taurus, UniProt Q08E52); assay: Pak1 kinase assay (autophosphorylation, [γ32P] ATP, autoradiography); format: biochemical, bovine; details: for autophosphorylation of Pak1: concentration not given
# T2 construct: from tissue; host or cells: bovine ventricle (cardiac) muscle
# Protocol: Preparation of Muscle Sample. Frozen bovine ventricle muscle (200 g) was cut into small pieces and homogenized in a blender containing 1 liter homogenization buffer (50 mM Tris base, 5 mM EDTA, 2 mM EGTA, 1 mM DTT, 0.5 mM benzamidine, 0.1 mM PMSF, pH 7.2). The homogenized muscle sample was centrifuged at 4500 g for 30 minutes. The supernatant fraction was saved and precipitated with ammonium sulfate (NH4)2SO4 at concentration 25% and 50% (w/v). Precipitates formed by (NH4)2SO4 addition between concentration 25% (w/v) and 50% (w/v) were saved and dialyzed against the homogenization buffer. After dialysis, the sample was filtered and lyophilized. For purification of Pak1 from smaller amounts of sample, the tissues or cells were homogenized in mammalian extraction buffer (50 mM Tris, pH 7.5; 150 mM NaCl; 0.1% Nonide P40; Complete Protease inhibitor cocktail tablets [Roche Diagnostics, cat # 11 873 580 001]). The ratio of tissue:buffer was about 1:5 (v/v). The homogenate was centrifuged in a bench-top centrifuge at 4° C. The supernatant fraction was saved for direct application onto the affinity column.
# Affinity Chromatography. The column was first washed with 20 ml equilibration buffer (20 mM Tris, pH 7.5; 0.1 M NaCl; 0.1 mM EDTA). Decoy peptide (3 mg) was applied to the column to saturate the matrix with the peptide. The muscle sample (the lyophilized extract) was dissolved in buffer (20 mM Tris, pH 7.5; 0.1 M NaCl; 0.1 mM EDTA) containing protease inhibitor cocktail tablets. The sample was loaded onto the affinity column and then washed with 20 ml washing buffer (20 mM Tris, pH 7.5; 0.1 M NaCl; 0.1 mM EDTA; 0.05% Tween-20). The Pak1 bound to the gel was eluted with equilibration buffer containing HA peptide ([…]) (SEQ ID NO: 2) at 1 mg/ml. HA peptide was removed from the sample by dialysis in buffer containing 20 mM HEPES, 5 mM NaCl, pH 7.2. The bound Pak1 could also be eluted with 5 ml glycine buffer, pH 2.5 (50 mM glycine-HCl; 0.1% Triton X-100; 0.15 M NaCl).
# Kinase Assay. Pak1 kinase activity was assayed in the following reaction buffer: 50 mM HEPES, pH 7.3, 10 mM MgCl2, 1 mM DTT, 0.05% Triton X-100) with 10 μCi of [γ32P] ATP (Perkin Elma. [γ-32P]-Adenosine 5′-triphosphate, Specific Activity: 3000 Ci (111TBq)/mmole, 50 mM Tricine (pH 7.6), Concentration: 5 mCi/mL, Catal NEG502H250UC) at 37° C. for 2 h. The kinase reaction was stopped by adding SDS sample buffer followed by boiling for 5 min. In view of reports of sphingosine-1 inducing an increase in Pak1 and Pak2 activity in vitro (Bokoch 1998, p 8137-8144; Roig 2001, p 195-199), the effect of sphingosine and sphingosine-1 phosphate on Pak1 autophosphorylation was also tested (FIG. 3A). The tested agonists (obtained from Calbiochem) included the following: C2 ceramide (N-acetyl-D-erythro-sphingosine), C6 ceramide (N-Hexanoyl-D-erythro-sphingosine) and safingol (Dihydro-L-threo-sphingosine). D-sphingosine (S 6879) and sphingosine 1-phosphate (S 9666) were purchased from Sigma. Sphingosines were dissolved in DMSO. The total reaction volume was 20 μl. DMSO (2 μl) was included in each reaction including the control. Incorporation of 32P from gamma 32P into Pak1 was directly detected by autoradiography after resolve the in vitro reaction products on SDS PAGE. […] When the sphingosine phosphate concentration increased to 100 and 200 μM, there was an increase in Pak1 autophosphorylation. In purified Pak1 sample, a 48 kD Pak1 degradation products can sometimes be detected (FIG. 1A, lane 3). When Pak1 activity increased, phosphorylation of the degradation products increased accordingly (FIG. 3).
# Autophosphorylation of Pak1, which correlates with its activity, provided a measure of Pak-1 enzyme function. […] In all the in vitro assays, we used 4 μg of Pak1 protein. The smaller band (˜48 kD) that could be Pak1 degradation products was also phosphorylated. […] The decoy peptide contains Pak1 autophosphorylation sites. […]
# [2] = test system: cardiac troponin in cardiomyocytes / ventricle myocytes; assay: Dephosphorylation of cardiac troponin in cardiomyocytes; format: cell-based
# Text: FTY720 is a structural analogue of sphingosine-1 and C2/C6-ceramide. […] Therefore, like C2- and C6-ceramides, FTY720 can serve as a β-blocker competitor for ischemic heart diseases including angina and systolic heart failure. The anti-(β) adrenergic effect of FTY720 is through activation of Pak1 in the heart. Our current observation further enforced by our previous work on Pak1 function related to heart diseases. Our studies also indicate that even better drug candidates can be designed or screened by testing their effects on Pak1 activation or inhibition using C2/C6 ceramides and FTY720 as prototypes.
# heart = details: Furuya 2001; Lecour 2006; cited from earlier work
# T-cells = details: O'Byrne 2000; cited from earlier work
# L-type Ca2+ channel = details: different types of cells; Chik 1999, 2004; cited from earlier work
# PP2A = details: Dobrowsky 1993; cited from earlier work
# heart rate = details: same or lower dose than used in clinical studies for organ transplantation and multiple sclerosis; cited from earlier work
# [3] = target: T1, decoy peptide (YNSKKTSNSQKYMSFTDKSA) …
# T2 sequence (Q08E52 whole entry): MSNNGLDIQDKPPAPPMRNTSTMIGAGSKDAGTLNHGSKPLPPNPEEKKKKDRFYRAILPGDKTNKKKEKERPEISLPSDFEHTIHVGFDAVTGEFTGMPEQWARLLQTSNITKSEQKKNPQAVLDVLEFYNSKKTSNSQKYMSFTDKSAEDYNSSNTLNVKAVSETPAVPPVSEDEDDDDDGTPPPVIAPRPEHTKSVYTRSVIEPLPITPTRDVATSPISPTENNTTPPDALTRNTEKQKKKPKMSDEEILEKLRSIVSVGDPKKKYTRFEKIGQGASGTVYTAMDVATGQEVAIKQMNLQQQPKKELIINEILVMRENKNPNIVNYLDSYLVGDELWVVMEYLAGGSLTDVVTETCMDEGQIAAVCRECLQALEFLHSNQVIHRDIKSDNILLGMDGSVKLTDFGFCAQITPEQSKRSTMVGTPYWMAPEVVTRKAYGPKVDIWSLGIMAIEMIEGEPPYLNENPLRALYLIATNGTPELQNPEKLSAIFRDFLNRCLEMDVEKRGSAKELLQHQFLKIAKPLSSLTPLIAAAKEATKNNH
molecule,measurement,setting,value
"CCCCCCCCCCCCC/C=C/[C@@H](O)[C@H](CO)NC(C)=O [C2 ceramide, N-acetyl-D-erythro-sphingosine]",effect activating Pak1 compared with sphingosine-1,[1],stronger effect than sphingosine-1
same,autophosphorylation of Pak1,"[1]; 37° C., 2 h",highly responsive
same,dephosphorylation of cardiac troponin in cardiomyocytes,[2],induces dephosphorylation
same,pre-conditioning effects in heart,heart,pre-conditioning effects
same,proliferation of T-cells stimulated by growth signals,T-cells,inhibited proliferation
same,L-type Ca2+ channel activity,L-type Ca2+ channel,depressed
same,PP2A activation,PP2A,known activator
"CCCCCCCCCCCCC/C=C/[C@@H](O)[C@H](CO)NC(=O)CCCCC [C6 ceramide, N-Hexanoyl-D-erythro-sphingosine]",effect activating Pak1 compared with sphingosine-1,[1],stronger effect than sphingosine-1
same,autophosphorylation of Pak1,"[1]; 37° C., 2 h",highly responsive
same,dephosphorylation of cardiac troponin in cardiomyocytes,[2],induces dephosphorylation
"CCCCCCCCCCCCC/C=C/[C@@H](O)[C@@H](N)CO [D-Sphingosine-1, D-erythro-sphingosine]",Autophosphorylation of the purified Pak1,"[1]; in the presence of 50 and 100 μM, 37° C., 2 h",increased
"CCCCCCCCc1ccc(CCC(N)(CO)CO)cc1 [FTY720, fingolimod]",cardiac effect (heart rate),heart rate,decrease of heart rate
"CCCCCCCCCCCCCCC[C@H](O)[C@@H](N)CO [saphingol, Dihydro-L-threo-sphingosine]",autophosphorylation of Pak1,"[1]; 37° C., 2 h",only slightly regulated
same,autophosphorylation of Pak1,"[1]; 37° C., 2 h, listed as Saphingosine",small stimulatory effect
"CCCCCCCCCCCCC/C=C/[C@@H](O)[C@@H](N)COP(=O)(O)O [sphingosine-1 phosphate, sphingosine 1-phosphate]",effect on autophosphorylation of Pak1,"[1]; at 25 and 50 μM, 37° C., 2 h",no significant effect
same,Pak1 autophosphorylation,"[1]; at 100 and 200 μM, 37° C., 2 h",increase
YNSKKTSNSQKYMSFTDKSA [decoy peptide],autophosphorylation of Pak1,"[1]; 37° C., 2 h",slightly inhibited
same,total kinase activity in the presence of the decoy peptide,[1]; data not shown,slight increase
B1,autophosphorylation of Pak1,[3],The decoy peptide slightly inhibited autophosphorylation of Pak1
